Laboratory results: ChEMBL document CHEMBL5303573, “Mapping human microbiome drug metabolism by gut bacteria and their genes” (Nature, 2019)

Assays:
[1] = The drug is tested on Bacteroides pectinophilus strain: ATCC43243 for biotransformation. The drug concentrations were measured before and after a 12-h incubation by liquid-chromatography-coupled mass spectrometry (LC–MS); conditions: 2 µM
[2] = The drug is tested on Bacteroides caccae strain: ATCC43185 for biotransformation. The drug concentrations were measured before and after a 12-h incubation by liquid-chromatography-coupled mass spectrometry (LC–MS); conditions: 2 µM
[3] = bacteroides intestinalis, 12 h, 2 µM
Description: The drug is tested on Bacteroides intestinalis strain: DSM17393 for biotransformation. The drug concentrations were measured before and after a 12-h incubation by liquid-chromatography-coupled mass spectrometry (LC–MS)

[4] = bacteroides thetaiotaomicron, 12 h, 2 µM
Description: The drug is tested on Bacteroides thetaiotaomicron strain: 7330 for biotransformation. The drug concentrations were measured before and after a 12-h incubation by liquid-chromatography-coupled mass spectrometry (LC–MS)

[5] = bacteroides fragilis, 12 h, 2 µM
Description: The drug is tested on Bacteroides fragilis strain: 3397 (T10) for biotransformation. The drug concentrations were measured before and after a 12-h incubation by liquid-chromatography-coupled mass spectrometry (LC–MS)

[6] = The drug is tested on Providencia rettgeri strain: DSM1131 for biotransformation. The drug concentrations were measured before and after a 12-h incubation by liquid-chromatography-coupled mass spectrometry (LC–MS); format: ADME; parameters: dose 2 uM, timepoint 0 vs 12 hours; conditions: 2 µM
[7] = The drug is tested on Alistipes indistinctus strain: DSM22520 for biotransformation. The drug concentrations were measured before and after a 12-h incubation by liquid-chromatography-coupled mass spectrometry (LC–MS); conditions: 2 µM
[8] = The drug is tested on Eubacterium ventriosum strain: ATCC27560 for biotransformation. The drug concentrations were measured before and after a 12-h incubation by liquid-chromatography-coupled mass spectrometry (LC–MS); format: ADME; parameters: dose 2 uM, timepoint 0 vs 12 hours; conditions: 2 µM
[9] = The drug is tested on Subdoligranulum variabile strain: DSM15176 for biotransformation. The drug concentrations were measured before and after a 12-h incubation by liquid-chromatography-coupled mass spectrometry (LC–MS); conditions: 2 µM
[10] = The drug is tested on Ruminococcus gnavus strain: ATCC29149 for biotransformation. The drug concentrations were measured before and after a 12-h incubation by liquid-chromatography-coupled mass spectrometry (LC–MS); conditions: mediterraneibacter gnavus, 2 µM
[11] = The drug is tested on Coprococcus comes strain: ATCC27758 for biotransformation. The drug concentrations were measured before and after a 12-h incubation by liquid-chromatography-coupled mass spectrometry (LC–MS); format: ADME; parameters: dose 2 uM, timepoint 0 vs 12 hours; conditions: 2 µM
[12] = The drug is tested on Ruminococcus lactaris strain: ATCC29176 for biotransformation. The drug concentrations were measured before and after a 12-h incubation by liquid-chromatography-coupled mass spectrometry (LC–MS); conditions: 2 µM
[13] = The drug is tested on Enterobacter cancerogenus strain: ATCC35316 for biotransformation. The drug concentrations were measured before and after a 12-h incubation by liquid-chromatography-coupled mass spectrometry (LC–MS); conditions: 2 µM
[14] = The drug is tested on Clostridium ramosum strain: DSM1402 for biotransformation. The drug concentrations were measured before and after a 12-h incubation by liquid-chromatography-coupled mass spectrometry (LC–MS); conditions: thomasclavelia ramosa, 2 µM
[15] = The drug is tested on Bacteroides fragilis strain: ATCC43859 for biotransformation. The drug concentrations were measured before and after a 12-h incubation by liquid-chromatography-coupled mass spectrometry (LC–MS); conditions: 2 µM
[16] = enterocloster bolteae, 12 h, 2 µM
Description: The drug is tested on Clostridium bolteae strain: ATCCBAA-613 for biotransformation. The drug concentrations were measured before and after a 12-h incubation by liquid-chromatography-coupled mass spectrometry (LC–MS)

[17] = The drug is tested on Edwardsiella tarda strain: ATCC23685 for biotransformation. The drug concentrations were measured before and after a 12-h incubation by liquid-chromatography-coupled mass spectrometry (LC–MS); conditions: 2 µM
[18] = The drug is tested on Escherichia coli strain: BW25113 for biotransformation. The drug concentrations were measured before and after a 12-h incubation by liquid-chromatography-coupled mass spectrometry (LC–MS); conditions: 2 µM
[19] = The drug is tested on Clostridium symbiosum strain: ATCC14940 for biotransformation. The drug concentrations were measured before and after a 12-h incubation by liquid-chromatography-coupled mass spectrometry (LC–MS); conditions: 2 µM
[20] = parabacteroides johnsonii, 12 h, 2 µM
Description: The drug is tested on Parabacteroides johnsonii strain: DSM18315 for biotransformation. The drug concentrations were measured before and after a 12-h incubation by liquid-chromatography-coupled mass spectrometry (LC–MS)

Structure (SMILES)	Bacterial Biotransformation [1]	Bacterial Biotransformation [2]	Bacterial Biotransformation [3]	Bacterial Biotransformation [4]	Bacterial Biotransformation [5]	Bacterial Biotransformation [6]	Bacterial Biotransformation [7]	Bacterial Biotransformation [8]	Bacterial Biotransformation [10]	Bacterial Biotransformation [11]	Bacterial Biotransformation [12]	Bacterial Biotransformation [13]	Bacterial Biotransformation [14]	Bacterial Biotransformation [15]	Bacterial Biotransformation [16]	Bacterial Biotransformation [17]	Bacterial Biotransformation [18]	Bacterial Biotransformation [19]	Bacterial Biotransformation [20]	Bacterial Biotransformation [9]
CN1[C@@H]2CC[C@H]1C[C@@H](OC(=O)C(CO)c1ccccc1)C2 (stereo partly drawn) [ATROPINE]	Compound NOT metabolized	Compound NOT metabolized	Compound NOT metabolized	Compound NOT metabolized	Compound NOT metabolized	Compound NOT metabolized	Compound NOT metabolized	Compound NOT metabolized	Compound NOT metabolized	Compound NOT metabolized										Compound NOT metabolized
CCN(CC)CCOC(=O)C1(C2CCCCC2)CCCCC1 [DICYCLOMINE]	Compound NOT metabolized	Compound NOT metabolized		Compound NOT metabolized		Compound NOT metabolized	Compound NOT metabolized		Compound NOT metabolized	Compound NOT metabolized	Compound NOT metabolized	Compound NOT metabolized	Compound NOT metabolized	Compound NOT metabolized	Compound NOT metabolized					
CN(C)CCC=C1c2ccccc2COc2ccccc21 [DOXEPIN]		Compound NOT metabolized	Compound NOT metabolized	Compound NOT metabolized	Compound NOT metabolized		Compound NOT metabolized	Compound NOT metabolized	Compound NOT metabolized	Compound NOT metabolized	Compound NOT metabolized				Compound NOT metabolized	Compound NOT metabolized	Compound NOT metabolized	Compound NOT metabolized	Compound NOT metabolized	Compound NOT metabolized
CCOC(=O)[C@H](CCc1ccccc1)N[C@@H](C)C(=O)N1CCC[C@H]1C(=O)O.O=C(O)/C=C\C(=O)O [ENALAPRIL MALEATE]	Compound NOT metabolized	Compound NOT metabolized	Compound NOT metabolized		Compound NOT metabolized	Compound NOT metabolized		Compound NOT metabolized	Compound NOT metabolized	Compound NOT metabolized	Compound NOT metabolized		Compound NOT metabolized		Compound NOT metabolized	Compound NOT metabolized	Compound NOT metabolized	Compound NOT metabolized		Compound NOT metabolized
O=C1NCC2(CCN(CCc3ccccc3)CC2)O1 [FENSPIRIDE]	Compound NOT metabolized	Compound NOT metabolized		Compound metabolized	Compound metabolized	Compound NOT metabolized	Compound NOT metabolized	Compound NOT metabolized	Compound NOT metabolized	Compound NOT metabolized	Compound NOT metabolized	Compound NOT metabolized	Compound NOT metabolized	Compound metabolized	Compound NOT metabolized	Compound NOT metabolized	Compound NOT metabolized	Compound NOT metabolized	Compound metabolized	
COc1ccc2c(c1)c(CC(=O)O)c(C)n2C(=O)c1ccc(Cl)cc1 [INDOMETHACIN]	Compound metabolized	Compound metabolized	Compound metabolized	Compound metabolized	Compound metabolized	Compound NOT metabolized	Compound metabolized	Compound metabolized	Compound NOT metabolized	Compound NOT metabolized		Compound NOT metabolized	Compound NOT metabolized	Compound metabolized	Compound metabolized	Compound NOT metabolized	Compound metabolized	Compound metabolized	Compound metabolized	

Continued, in another order:

Bacterial Biotransformation [1]	Bacterial Biotransformation [2]	Bacterial Biotransformation [3]	Bacterial Biotransformation [4]	Bacterial Biotransformation [5]	Bacterial Biotransformation [6]	Bacterial Biotransformation [7]	Bacterial Biotransformation [8]	Bacterial Biotransformation [10]	Bacterial Biotransformation [11]	Bacterial Biotransformation [12]	Bacterial Biotransformation [13]	Bacterial Biotransformation [14]	Bacterial Biotransformation [15]	Bacterial Biotransformation [16]	Bacterial Biotransformation [17]	Bacterial Biotransformation [18]	Bacterial Biotransformation [19]	Bacterial Biotransformation [20]	Structure (SMILES)	Bacterial Biotransformation [9]
Compound NOT metabolized	Compound metabolized	Compound NOT metabolized	Compound metabolized	Compound metabolized	Compound NOT metabolized	Compound NOT metabolized	Compound NOT metabolized	Compound metabolized	Compound NOT metabolized		Compound NOT metabolized	Compound NOT metabolized	Compound metabolized	Compound NOT metabolized	Compound NOT metabolized	Compound NOT metabolized	Compound NOT metabolized	Compound metabolized	C#C[C@]1(O)CC[C@H]2[C@@H]3CCC4=CC(=O)CC[C@@H]4[C@H]3CC[C@@]21CC [LEVONORGESTREL]	
	Compound NOT metabolized	Compound NOT metabolized	Compound NOT metabolized	Compound NOT metabolized		Compound NOT metabolized	Compound NOT metabolized	Compound NOT metabolized	Compound NOT metabolized	Compound NOT metabolized	Compound NOT metabolized	Compound NOT metabolized	Compound NOT metabolized	Compound NOT metabolized	Compound NOT metabolized		Compound NOT metabolized		CCN(CC)CCOC(=O)C(Cc1cccc2ccccc12)CC1CCCO1.O=C(O)C(=O)O (stereo not drawn) [NAFRONYL OXALATE]	
Compound NOT metabolized	Compound NOT metabolized		Compound NOT metabolized	Compound NOT metabolized	Compound NOT metabolized	Compound NOT metabolized	Compound NOT metabolized	Compound NOT metabolized	Compound NOT metabolized	Compound NOT metabolized	Compound NOT metabolized	Compound NOT metabolized	Compound metabolized	Compound NOT metabolized	Compound NOT metabolized	Compound NOT metabolized	Compound NOT metabolized		CC(C)[C@H]1CC[C@H](C(=O)N[C@H](Cc2ccccc2)C(=O)O)CC1 [NATEGLINIDE]	
Compound metabolized	Compound NOT metabolized	Compound NOT metabolized	Compound NOT metabolized	Compound NOT metabolized	Compound NOT metabolized	Compound NOT metabolized	Compound NOT metabolized	Compound NOT metabolized	Compound NOT metabolized	Compound NOT metabolized	Compound metabolized	Compound NOT metabolized	Compound NOT metabolized	Compound metabolized	Compound NOT metabolized	Compound NOT metabolized	Compound NOT metabolized	Compound metabolized	Fc1ccc([C@@H]2CCNC[C@H]2COc2ccc3c(c2)OCO3)cc1 [PAROXETINE]	
